US8168592B2 (Amgen Inc., priority 2005, dated 2012)
Like-named read-outs stand apart in the source and are kept apart here. Blank lines part the entries; values can stand above or below the compound they belong to. Bridge positions count the residues as written; N and C are the ends. Square brackets hold non-standard residues; d marks the D form. Ends that are not written are not given here. Peptide text beside a SMILES is read from it. Oic = O=C(O)[C@@H]1C[C@@H]2CCCC[C@@H]2N1; Phe(4-I) = N[C@@H](Cc1ccc(I)cc1)C(=O)O; 1Nal = N[C@@H](Cc1cccc2ccccc12)C(=O)O; 2Nal = N[C@@H](Cc1ccc2ccccc2c1)C(=O)O; hArg = N=C(N)NCCCC[C@H](N)C(=O)O; Cit = NC(=O)NCCC[C@H](N)C(=O)O; PEG = not defined here

Target: T1, CGRP1 receptor (Homo sapiens, UniProt O60894+Q16602)
T1 construct: SK-N-MC cells express CRLR and RAMP1, which form CGRP1 receptor; endogenous in cells; host or cells: SK-N-MC human neuroblastoma cells
T1 sequence (Q16602 23-461): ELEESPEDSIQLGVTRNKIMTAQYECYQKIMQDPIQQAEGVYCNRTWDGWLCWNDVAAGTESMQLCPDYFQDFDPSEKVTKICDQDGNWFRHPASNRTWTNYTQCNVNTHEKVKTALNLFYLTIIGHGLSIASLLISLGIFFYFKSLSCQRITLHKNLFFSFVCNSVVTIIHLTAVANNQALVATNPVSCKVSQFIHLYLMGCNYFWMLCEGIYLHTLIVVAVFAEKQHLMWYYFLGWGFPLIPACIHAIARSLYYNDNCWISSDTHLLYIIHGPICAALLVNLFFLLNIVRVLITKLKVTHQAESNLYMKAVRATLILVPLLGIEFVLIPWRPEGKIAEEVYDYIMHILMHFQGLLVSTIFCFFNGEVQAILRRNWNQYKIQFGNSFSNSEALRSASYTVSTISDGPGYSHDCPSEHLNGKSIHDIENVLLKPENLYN
T1 sequence (O60894 27-148): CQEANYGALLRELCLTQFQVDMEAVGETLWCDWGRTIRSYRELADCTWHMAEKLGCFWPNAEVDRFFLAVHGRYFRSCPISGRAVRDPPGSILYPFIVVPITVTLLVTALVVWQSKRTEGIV
Test: in vitro CGRP1 receptor mediated cAMP assay in SK-N-MC cells
Type: cell-based
How it was run: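 Human SK-N-MC neuroblastoma cells, which endogenously express CRLR/RAMP1, were plated two days before assay and preincubated in plasma-free medium for 15 minutes at room temperature. Cells were then lysed for 30 minutes at 37° C, and cAMP in the lysates was quantified by competitive cAMP-AP chemiluminescent ELISA.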

[1] = Table 2C, unconjugated peptide, read-out: Peptide IC50

Compound: CC(=O)N[C@@H](Cc1c[nH]c2ccccc12)C(=O)N[C@H](C(=O)N[C@H](C(=O)N[C@@H](Cc1c[nH]cn1)C(=O)N[C@@H](CCCNC(N)=O)C(=O)N[C@@H](CC(C)C)C(=O)N[C@@H](C)C(=O)NCC(=O)N[C@@H](CC(C)C)C(=O)N[C@@H](CC(C)C)C(=O)N[C@@H](CO)C(=O)N[C@@H](CCCNC(N)=O)C(=O)N[C@@H](CO)C(=O)NCC(=O)NCC(=O)N[C@H](C(=O)N[C@H](C(=O)N[C@@H](CCCCNC(=N)N)C(=O)N[C@@H](CCCCN)C(=O)N[C@@H](CC(N)=O)C(=O)N[C@@H](Cc1ccccc1)C(=O)N[C@H](C(=O)N1[C@H](C(=O)N[C@H](C(=O)N[C@@H](CC(=O)O)C(=O)N[C@H](C(=O)NCC(=O)N2CCC[C@H]2C(=O)N[C@@H](Cc2cccc3ccccc23)C(=O)N[C@@H](C)C(=O)N[C@@H](Cc2ccc3ccccc3c2)C(N)=O)C(C)C)[C@@H](C)O)C[C@@H]2CCCC[C@@H]21)C(C)C)C(C)C)C(C)C)[C@@H](C)O)C(C)C [compound 133] (Ac-WVTH[Cit]LAGLLS[Cit]SGGVV[hArg]KNFV[Oic]TDVGP[1Nal]A[2Nal]-NH2)
IC50 (Table 2A, read-out: IC50): 2.73 nM

Compound: SEQ ID NO:33 (Ac-WVTHRLAGLLSASGGVVRCNFVPTDVGPFAF-NH2)
antagonist activity in cAMP assay, in words: not well tolerated

Compound: CC(=O)N[C@@H](CCCCN)C(=O)N[C@@H](Cc1c[nH]c2ccccc12)C(=O)N[C@H](C(=O)N[C@H](C(=O)N[C@@H](Cc1c[nH]cn1)C(=O)N[C@@H](CCCNC(N)=O)C(=O)N[C@@H](CC(C)C)C(=O)N[C@@H](C)C(=O)NCC(=O)N[C@@H](CC(C)C)C(=O)N[C@@H](CC(C)C)C(=O)N[C@@H](CO)C(=O)N[C@@H](CCCNC(N)=O)C(=O)N[C@@H](CO)C(=O)NCC(=O)NCC(=O)N[C@H](C(=O)N[C@H](C(=O)N[C@@H](CCCNC(=N)N)C(=O)N[C@@H](CCCCN)C(=O)N[C@@H](CC(N)=O)C(=O)N[C@@H](Cc1ccccc1)C(=O)N[C@H](C(=O)N1CCC[C@H]1C(=O)N[C@H](C(=O)N[C@@H](CC(=O)O)C(=O)N[C@H](C(=O)NCC(=O)N1CCC[C@H]1C(=O)N[C@@H](CCCCN)C(=O)N[C@@H](C)C(=O)N[C@@H](Cc1ccccc1)C(N)=O)C(C)C)[C@@H](C)O)C(C)C)C(C)C)C(C)C)[C@@H](C)O)C(C)C [compound 128] (Ac-KWVTH[Cit]LAGLLS[Cit]SGGVVRKNFVPTDVGPKAF-NH2)
IC50 (Table 2A, read-out: IC50): 13 nM

Compound: SEQ ID NO:26 (WVTHXLAGLLSXSGGVVRKNFVPTDVGPFAF; CGRP peptide; MOD_RES (1)..(1): …ON; MISC_FEATURE (5)..(5): xaa=homoarginine; MISC_FEATURE (12)..(12): xaa=homoarginine; MISC_FEATURE (19)..(19): PEGylated; MOD_RES (31)..(31): AMIDATION)
antagonist activity in cAMP assay, in words: antagonist activity returned to the levels of the two peptides with single substitutions

Compound: SEQ ID NO:2 (CGGGGGGGVTHRLAGLLSRSGGVVKNNFVPTNVGSKAF-NH2)
antagonist activity in cAMP assay, in words: deleterious to potency

Compound: SEQ ID NO:38 (Ac-WVTHRLAGLLSQSGGVVRK(PEG)NFVPTDVGPFAF-NH2; reading uncertain)
more potent than the thioether-linked PEGylated analog SEQ ID NO:36 (amine linkage): more than 42 fold

Compound: Ac-WVTHRLAGLLSQSGGVVRCNFVPTDVGPFAF-NH2 [compound 35]
IC50 (Table 7, R11 and/or R18 stability analogs, with or without 20 kDa PEG, read-out: IC50): 0.37 nM

Second part, the compound after the results:

IC50 (Table 2A, read-out: IC50): 2.34 nM
Compound: CC(=O)N[C@@H](Cc1c[nH]c2ccccc12)C(=O)N[C@H](C(=O)N[C@H](C(=O)N[C@@H](Cc1c[nH]cn1)C(=O)N[C@@H](CCCNC(N)=O)C(=O)N[C@@H](CC(C)C)C(=O)N[C@@H](C)C(=O)NCC(=O)N[C@@H](CC(C)C)C(=O)N[C@@H](CC(C)C)C(=O)N[C@@H](CO)C(=O)N[C@@H](CCCNC(N)=O)C(=O)N[C@@H](CO)C(=O)NCC(=O)NCC(=O)N[C@H](C(=O)N[C@H](C(=O)N[C@@H](CCCCNC(=N)N)C(=O)N[C@@H](CCCCN)C(=O)N[C@@H](CC(N)=O)C(=O)N[C@@H](Cc1ccc(I)cc1)C(=O)N[C@H](C(=O)N1[C@H](C(=O)N[C@H](C(=O)N[C@@H](CC(=O)O)C(=O)N[C@H](C(=O)NCC(=O)N2CCC[C@H]2C(=O)N[C@@H](Cc2ccc(I)cc2)C(=O)N[C@@H](C)C(=O)N[C@@H](Cc2ccccc2)C(N)=O)C(C)C)[C@@H](C)O)C[C@@H]2CCCC[C@@H]21)C(C)C)C(C)C)C(C)C)[C@@H](C)O)C(C)C [compound 136] (Ac-WVTH[Cit]LAGLLS[Cit]SGGVV[hArg]KN[Phe(4-I)]V[Oic]TDVGP[Phe(4-I)]AF-NH2)

IC50 (Table 2A, read-out: IC50): 2.24 nM
Compound: CC(=O)N[C@@H](Cc1c[nH]c2ccccc12)C(=O)N[C@H](C(=O)N[C@H](C(=O)N[C@@H](Cc1c[nH]cn1)C(=O)N[C@@H](CCCNC(N)=O)C(=O)N[C@@H](CC(C)C)C(=O)N[C@@H](C)C(=O)NCC(=O)N[C@@H](CC(C)C)C(=O)N[C@@H](CC(C)C)C(=O)N[C@@H](CO)C(=O)N[C@@H](CCCNC(N)=O)C(=O)N[C@@H](CO)C(=O)NCC(=O)NCC(=O)N[C@H](C(=O)N[C@H](C(=O)N[C@@H](CCCCNC(=N)N)C(=O)N[C@@H](CCCCN)C(=O)N[C@@H](CC(N)=O)C(=O)N[C@@H](Cc1ccccc1)C(=O)N[C@H](C(=O)N1CCC[C@H]1C(=O)N[C@H](C(=O)N[C@@H](CC(=O)O)C(=O)N[C@H](C(=O)NCC(=O)N1CCC[C@H]1C(=O)N[C@@H](Cc1cccc2ccccc12)C(=O)N[C@@H](C)C(=O)N[C@@H](Cc1ccccc1)C(N)=O)C(C)C)[C@@H](C)O)C(C)C)C(C)C)C(C)C)[C@@H](C)O)C(C)C [compound 144] (Ac-WVTH[Cit]LAGLLS[Cit]SGGVV[hArg]KNFVPTDVGP[1Nal]AF-NH2)

IC50 (Table 2D, read-out: IC50): 1.33 nM
Compound: 805 (Ac-WVTHRLAGLLSRSGGVVRC(20 kDa MeO‑PEG)NFVPTDVGPFAF-NH2) [compound 805]

IC50 [1]: 0.57 nM
Compound: CC(=O)N[C@@H](Cc1c[nH]c2ccccc12)C(=O)N[C@H](C(=O)N[C@H](C(=O)N[C@@H](Cc1c[nH]cn1)C(=O)N[C@@H](CCCNC(=N)N)C(=O)N[C@@H](CC(C)C)C(=O)N[C@@H](C)C(=O)NCC(=O)N[C@@H](CC(C)C)C(=O)N[C@@H](CC(C)C)C(=O)N[C@@H](CO)C(=O)N[C@@H](CCCCNC(=N)N)C(=O)N[C@@H](CO)C(=O)NCC(=O)NCC(=O)N[C@H](C(=O)N[C@H](C(=O)N[C@@H](CCCNC(=N)N)C(=O)N[C@@H](CCCCN)C(=O)N[C@@H](CC(N)=O)C(=O)N[C@@H](Cc1ccccc1)C(=O)N[C@H](C(=O)N1CCC[C@H]1C(=O)N[C@H](C(=O)N[C@@H](CC(=O)O)C(=O)N[C@H](C(=O)NCC(=O)N1CCC[C@H]1C(=O)N[C@@H](Cc1ccccc1)C(=O)N[C@@H](C)C(=O)N[C@@H](Cc1ccccc1)C(N)=O)C(C)C)[C@@H](C)O)C(C)C)C(C)C)C(C)C)[C@@H](C)O)C(C)C [compound 864]

IC50 [1]: 0.83 nM
Compound: CC(=O)N[C@@H](Cc1c[nH]c2ccccc12)C(=O)N[C@H](C(=O)N[C@H]1CCC(=O)NCCCC[C@@H](C(=O)NCC(=O)N[C@@H](CC(C)C)C(=O)N[C@@H](CC(C)C)C(=O)N[C@@H](CO)C(=O)N[C@@H](CCCNC(N)=O)C(=O)N[C@@H](CO)C(=O)NCC(=O)NCC(=O)N[C@H](C(=O)N[C@H](C(=O)N[C@@H](CCCCNC(=N)N)C(=O)N[C@@H](CCCCN)C(=O)N[C@@H](CC(N)=O)C(=O)N[C@@H](Cc2ccccc2)C(=O)N[C@H](C(=O)N2CCC[C@H]2C(=O)N[C@H](C(=O)N[C@@H](CC(=O)O)C(=O)N[C@H](C(=O)NCC(=O)N2CCC[C@H]2C(=O)N[C@@H](Cc2ccccc2)C(=O)N[C@@H](C)C(=O)N[C@@H](Cc2ccccc2)C(N)=O)C(C)C)[C@@H](C)O)C(C)C)C(C)C)C(C)C)NC(=O)[C@H](CC(C)C)NC(=O)[C@H](CCCNC(N)=O)NC(=O)[C@H](Cc2c[nH]cn2)NC1=O)C(C)C [compound 907] (Ac-WVEH[Cit]LKGLLS[Cit]SGGVV[hArg]KNFVPTDVGPFAF-NH2; lactam 3-7)

IC50 (Table 2A, read-out: IC50): > 1000 nM
Compound: CC(=O)N[C@H](C(=O)N[C@H](C(=O)N[C@H](C(=O)N[C@H](C(=O)N[C@@H](Cc1c[nH]cn1)C(=O)N[C@@H](CCCNC(N)=O)C(=O)N[C@@H](CC(C)C)C(=O)N[C@@H](C)C(=O)NCC(=O)N[C@@H](CC(C)C)C(=O)N[C@@H](CC(C)C)C(=O)N[C@@H](CO)C(=O)N[C@@H](CCCNC(N)=O)C(=O)N[C@@H](CO)C(=O)NCC(=O)NCC(=O)N[C@H](C(=O)N[C@H](C(=O)N[C@@H](CCCCNC(=N)N)C(=O)N[C@@H](CCCCN)C(=O)N[C@@H](CC(N)=O)C(=O)N[C@@H](Cc1ccccc1)C(=O)N[C@H](C(=O)N1CCC[C@H]1C(=O)N[C@H](C(=O)N[C@@H](CC(=O)O)C(=O)N[C@H](C(=O)NCC(=O)N1CCC[C@H]1C(=O)N[C@@H](Cc1ccccc1)C(=O)N[C@@H](C)C(N)=O)C(C)C)[C@@H](C)O)C(C)C)C(C)C)C(C)C)[C@@H](C)O)C(C)C)C(C)C)C(C)C [compound 654] (Ac-VVVTH[Cit]LAGLLS[Cit]SGGVV[hArg]KNFVPTDVGPFA-NH2)

IC50 [1]: 0.47 nM
Compound: Ac-WVTHRLAGLLSQSGGVVRKNFVPTDVGPFAF-NH2 [compound 856]

IC50 [1]: 1.16 nM
Compound: CC(=O)N[C@@H](Cc1c[nH]c2ccccc12)C(=O)N[C@H](C(=O)N[C@H](C(=O)N[C@@H](Cc1c[nH]cn1)C(=O)N[C@@H](CCCNC(=N)N)C(=O)N[C@@H](CC(C)C)C(=O)N[C@@H](C)C(=O)NCC(=O)N[C@@H](CC(C)C)C(=O)N[C@@H](CC(C)C)C(=O)N[C@@H](CO)C(=O)N[C@@H](CCCNC(=N)N)C(=O)N[C@@H](CO)C(=O)NCC(=O)NCC(=O)N[C@H](C(=O)N[C@H](C(=O)N[C@@H](CCCNC(=N)N)C(=O)N[C@@H](CCCCN)C(=O)N[C@@H](CC(N)=O)C(=O)N[C@@H](Cc1ccc2ccccc2c1)C(=O)N[C@H](C(=O)N1CCC[C@H]1C(=O)N[C@H](C(=O)N[C@@H](CC(=O)O)C(=O)N[C@H](C(=O)NCC(=O)N1CCC[C@H]1C(=O)N[C@@H](Cc1ccccc1)C(=O)N[C@@H](C)C(=O)N[C@@H](Cc1ccccc1)C(N)=O)C(C)C)[C@@H](C)O)C(C)C)C(C)C)C(C)C)[C@@H](C)O)C(C)C [compound 912] (Ac-WVTHRLAGLLSRSGGVVRKN[2Nal]VPTDVGPFAF-NH2)
